# Where two headings read alike, the source gives them in different places.
# Legend:
# [1] = test system: T1, Staphylococcus epidermidis MRSE CLB26329; assay: microbe, parasite or virus in culture; set-up: minimum inhibitory concentration of antibiotics against staphylococcal strains
# T1 construct: CLB26329 (MRSE), parental wild type
# Description: (§1) Minimum inhibitory concentrations (MIC; μg ml^-1) of β-lactams imipenem (IPM), nafcillin (Naf), and dicloxacillin (Dic) are provided. […] To directly evaluate the consequence of these mnaA mutations, WTA of the corresponding mutants was extracted and polymer levels visualized on an alcian blue-silver stained SDS PAGE gel (Fig 3A and S1 Fig).
# [2] = test system: T2, Staphylococcus aureus MRSA COL; assay: microbe, parasite or virus in culture; set-up: minimum inhibitory concentration of antibiotics against staphylococcal strains
# T2 construct: COL (MRSA), parental wild type
# Description: as §1
# [3] = test system: CC(=O)N[C@H]1[C@@H](OP(=O)(O)OP(=O)(O)OC[C@H]2O[C@@H](n3ccc(=O)[nH]c3=O)[C@H](O)[C@@H]2O)O[C@H](CO)[C@@H](O)[C@@H]1O; assay: purified protein; conditions: forward reaction, 10 mM NaPi, 50 mM NaCl, pH 8.0, 30°C, MnaA-His6
# [4] = test system: CC(=O)N[C@@H]1[C@@H](OP(=O)(O)OP(=O)(O)OC[C@H]2O[C@@H](n3ccc(=O)[nH]c3=O)[C@H](O)[C@@H]2O)O[C@H](CO)[C@@H](O)[C@@H]1O; assay: purified protein; conditions: reverse reaction, 10 mM NaPi, 50 mM NaCl, pH 8.0, 30°C, MnaA-His6
# MnaA = biological target: T3, MnaA (Staphylococcus aureus, UniProt Q9REV4); assay: X-ray crystal structure, […] Å; type: binding; conditions: 4 mM Na2UDP added; one UDP per chain; also co-purified with the protein
# T3 construct: MnaA-His6 in the activity assays; purification in supplement (S1 Text); dimer in crystal; residues from 376 to the C-terminus not modelled
# [5] = read-out: MIC (µg ml-1) / Vanco
# T3 sequence (Q9REV4 entry or part of it): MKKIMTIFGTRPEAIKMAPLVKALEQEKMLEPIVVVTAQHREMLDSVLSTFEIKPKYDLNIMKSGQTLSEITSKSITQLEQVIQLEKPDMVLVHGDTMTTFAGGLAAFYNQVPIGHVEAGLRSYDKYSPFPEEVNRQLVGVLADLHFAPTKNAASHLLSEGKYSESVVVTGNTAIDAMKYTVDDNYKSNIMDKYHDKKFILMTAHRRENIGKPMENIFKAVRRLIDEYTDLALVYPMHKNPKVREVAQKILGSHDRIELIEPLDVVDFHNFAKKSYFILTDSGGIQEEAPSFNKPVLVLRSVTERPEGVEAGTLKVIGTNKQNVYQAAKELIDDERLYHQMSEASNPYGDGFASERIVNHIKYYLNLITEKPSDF
compound,measurement,setting,value
C[C@@H](O)[C@H]1C(=O)N2C(C(=O)O)=C(SCCNC=N)C[C@H]12 [imipenem],MIC,[1]; read-out: MIC (µg ml-1) / IPM,64 µg/mL
same,MIC,[2]; read-out: MIC (µg ml-1) / IPM,32 µg/mL
Cc1onc(-c2c(Cl)cccc2Cl)c1C(=O)N[C@@H]1C(=O)N2[C@@H]1SC(C)(C)[C@@H]2C(=O)O [dicloxacillin],MIC,[1]; read-out: MIC (µg ml-1) / Dic,> 64 µg/mL
same,MIC,[2]; read-out: MIC (µg ml-1) / Dic,> 64 µg/mL
CN[C@H](CC(C)C)C(=O)N[C@H]1C(=O)N[C@@H](CC(N)=O)C(=O)N[C@H]2C(=O)N[C@H]3C(=O)N[C@H](C(=O)N[C@H](C(=O)O)c4cc(O)cc(O)c4-c4cc3ccc4O)[C@H](O)c3ccc(c(Cl)c3)Oc3cc2cc(c3O[C@@H]2O[C@H](CO)[C@@H](O)[C@H](O)[C@H]2O[C@H]2C[C@](C)(N)[C@H](O)[C@H](C)O2)Oc2ccc(cc2Cl)[C@H]1O [vancomycin],MIC,[1]; [5],4 µg/mL
same,MIC,[2]; [5],2 µg/mL
MnaA (Staphylococcus aureus),Km,[3],411 ± 57 µM
same,Km,[4],131 ± 21 µM
CCOc1ccc2ccccc2c1C(=O)N[C@@H]1C(=O)N2[C@@H]1SC(C)(C)[C@@H]2C(=O)O [nafcillin],MIC,[1]; read-out: MIC (µg ml-1) / Naf,> 64 µg/mL
same,MIC,[2]; read-out: MIC (µg ml-1) / Naf,> 64 µg/mL
O=c1ccn([C@@H]2O[C@H](COP(=O)(O)OP(=O)(O)O)[C@@H](O)[C@H]2O)c(=O)[nH]1 [UDP],"X-ray crystal structure, 1.9 Å",MnaA,The model also contains one molecule of UDP per chain
